According to PMC12029992, “Beyond-Rule-of-Five Compounds Are Not Different: In Vitro–In Vivo Extrapolation of Female CD-1 Mouse Clearance Based on Merck Healthcare KGaA Compound Set” (Pharmaceuticals, 2025):

test: Determination of CLint in mouse hepatocytes (hepatocyte stability); type: in vitro ADME; details: female CD-1 mouse hepatocytes
Procedure: Hepatocyte stability was assessed, as described previously, on a liquid handling platform (Hamilton Microlab Vantage, Bonaduz, Switzerland) using cryopreserved pooled female CD-1 mouse hepatocytes in suspension. Viability was determined in a Neubauer chamber by trypan blue staining and was always above 70%. Compounds (1 µM final) were incubated with hepatocytes at a cell density of 0.2 × 10^6 cells/mL in Krebs–Henseleit buffer (pH 7.4). […] Incubations were carried out in duplicate at 37 °C under an atmosphere of 5% CO2 and 95% humidity. Aliquots were taken at time points of 0, 10, 20, 40, 60, and 90 min and quenched with a two-fold volume of an ACN solution containing 1.5 µM of an internal standard. The supernatants were further diluted to a ratio of 1:3 (v/v) with supernatants from other compound incubations for bioanalytical cocktailing designed to avoid analytical interference. The samples were analyzed by UHPLC-MS/MS (for details, see the Supplementary Materials).
For quantitation with the Analyst software (version 1.7.2), MS peak area ratios of the compounds and an internal standard were calculated and transformed to nanomolar concentrations determined based on a four-point calibration comprising 1.2% to 150% of the incubation concentration. Calibration standards were prepared using heat-inactivated (60 °C for at least 15 min) hepatocytes as a biomatrix and processed in duplicate, as described for the test samples.
For data analysis, the concentration data were plotted against the incubation time, the first-order kel was determined by non-linear regression using Biorails version 5.10.22/Morphit version 8.0 (The Edge Software Consultancy, Guildford, UK), and CLint values (expressed in µL/min/10^6 cells) were obtained by normalizing kel with the hepatocyte concentration.

In order of falling “Hepatocyte CLint” value:
1. N#Cc1c[nH]c2c(C(=O)N3CCN(CCc4ccc(F)cc4)CC3)cccc12 [MSC213]  222.1 µl/min/1e6 cells
2. COc1cccc(OCCCN)c1-c1cc(Nc2cnc(C#N)cn2)n[nH]1 [MSC020]  70.5 µl/min/1e6 cells
3. CNC(=O)c1cc(Oc2ccc3nc(N[C@@H]4CCCC[C@H]4O)sc3c2)ccn1 [MSC003]  16.5 µl/min/1e6 cells
4. O=C(O)c1cc(-c2ccc(F)cc2F)ccc1O [MSC001]  11.9 µl/min/1e6 cells
